Measurements reported in patent US20110021565A1, “PIPERIDINE DERIVATIVES AS NK3 ANTAGONISTS” (priority 2007, published 2011).
Read-outs that look alike come from different tables or passages of the source.

Target: T1, recombinant human NK3 receptor (Homo sapiens, UniProt P29371)
T1 construct: expressed in transfected cells; host or cells: HEK293 cells, transient expression; membrane preparation
T1 sequence (P29371 1-465): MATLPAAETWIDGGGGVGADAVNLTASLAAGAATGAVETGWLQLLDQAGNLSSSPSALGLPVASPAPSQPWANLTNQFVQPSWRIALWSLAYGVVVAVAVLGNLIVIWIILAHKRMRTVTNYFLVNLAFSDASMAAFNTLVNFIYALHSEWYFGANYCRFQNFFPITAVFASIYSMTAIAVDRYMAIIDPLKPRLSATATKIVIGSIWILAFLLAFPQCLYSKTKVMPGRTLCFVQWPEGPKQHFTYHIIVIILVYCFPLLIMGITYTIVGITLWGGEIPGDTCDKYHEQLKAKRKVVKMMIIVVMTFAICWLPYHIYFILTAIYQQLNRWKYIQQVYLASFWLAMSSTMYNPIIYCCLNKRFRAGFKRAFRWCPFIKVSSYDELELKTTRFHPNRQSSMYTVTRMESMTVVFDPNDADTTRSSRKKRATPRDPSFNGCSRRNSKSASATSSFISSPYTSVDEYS
Assay: [3H]SR142801 competition binding assay
Protocol: [^3H]SR142801 Competition Binding Assay
hNK3 receptor binding experiment were performed using [^3H]SR142801 (Catalog No. TRK1035, specific activity: 74.0 Ci/mmol, Amersham, GE Healthcare UK limited, Buckinghamshire, UK) and membrane isolated from HEK293 cells transiently expressing recombinant human NK3 receptor. After thawing, the membrane homogenates were centrifuged at 48,000×g for 10 min at 4° C., the pellets were resuspended in the 50 mM Tris-HCl, 4 mM MnCl2, 1 μM phosphoramidon, 0.1% BSA binding buffer at pH 7.4 to a final assay concentration of 5 μg protein/well. For inhibition experiments, membranes were incubated with [^3H]SR142801 at a concentration equal to KD value of radioligand and 10 concentrations of the inhibitory compound (0.0003-10 μM) (in a total reaction volume of 500 μl) for 75 min at room temperature (RT). At the end of the incubation, membranes were filtered onto unitfilter (96-well white microplate with bonded GF/C filter preincubated 1 h in 0.3% PEI+0.3% BSA, Packard BioScience, Meriden, Conn.) with a Filtermate 196 harvester (Packard BioScience) and washed 4 times with ice-cold 50 mM Tris-HCl, pH 7.4 buffer. Nonspecific binding was measured in the presence of 10 μM SB222200 for both radioligands. The radioactivity on the filter was counted (5 min) on a Packard Top-count microplate scintillation counter with quenching correction after addition of 45 μl of microscint 40 (Canberra Packard S. A., Zurich, Switzerland) and shaking for 1 h. Inhibition curves were fitted according to the Hill equation: y=100/(1+(x/IC50)^nH), where nH=slope factor using Excel-fit 4 software ([…]). IC50 values were derived from the inhibition curve and the affinity constant (IQ values were calculated using the Cheng-Prussoff equation Ki=IC50/(1+[L]/KD) where [L] is the concentration of radioligand and KD is its dissociation constant at the receptor, derived from the saturation isotherm. All experiments were performed in duplicate and the mean±standard error (SEM) of the individual Ki values was calculated.

[1] = [3H]SR142801, membranes of HEK293 cells transiently expressing recombinant human NK3 receptor, read-out: hNK3 Ki
[2] = representative compounds, [3H]SR142801, HEK293 membranes, human NK3 receptor, read-out: Ki NK3 h

| SMILES | Ki [1] | Ki [2] |
| --- | --- | --- |
| CC(=O)N(C)C1CCN(CCC(C)(C(=O)N(C)Cc2ccc(F)c(C(F)(F)F)c2)c2ccc(Cl)c(Cl)c2)CC1 (stereo not shown) [Example 104, 4-[4-(Acetyl-methyl-amino)-piperidin-1-yl]-2-(3,4-dichloro-phenyl)-N-(4-fluoro-3-trifluoromethyl-benzyl)-2,N-dimethyl-butyramide] | 2.3 nM | 2.3 nM |
| CN(Cc1ccc(Cl)cc1)C(=O)C(C)(CCN1CCC(NS(C)(=O)=O)CC1)c1ccc(Cl)c(Cl)c1 (stereo not shown) [Example 26, N-(4-Chloro-benzyl)-2-(3,4-dichloro-phenyl)-4-(4-methanesulfonyl-amino-piperidin-1-yl)-2,N-dimethyl-butyramide] | 26.5 nM |  |
| CC(=O)N(C)C1CCN(CCC(C)(C(=O)N[C@@H](CO)c2ccccc2)c2ccc(Cl)c(Cl)c2)CC1 (stereo partly drawn) [Example 134, 4-[4-(Acetyl-methyl-amino)-piperidin-1-yl]-2-(3,4-dichloro-phenyl)-N-((R)-2-hydroxy-1-phenyl-ethyl)-2-methyl-butyramide] | 35.6 nM |  |
| COCCN(C(C)=O)C1CCN(CCC(C)(C(=O)N[C@@H](CO)c2ccc(F)cc2)c2ccc(Cl)c(Cl)c2)CC1 (single isomer, unassigned; diastereoisomer 1) [Example 146, 4-{4-[Acetyl-(2-methoxy-ethyl)-amino]-piperidin-1-yl}-2-(3,4-dichloro-phenyl)-N-[1-(4-fluoro-phenyl)-2-hydroxy-ethyl]-2-methyl-butyramide (diastereoisomer 1)] | 0.7 nM | 0.7 nM |
| CN(Cc1ccc(F)c(C(F)(F)F)c1)C(=O)C(C)(CCN1CCC(N(C)S(C)(=O)=O)CC1)c1ccc(Cl)c(Cl)c1 (stereo not shown) [Example 47, 2-(3,4-Dichloro-phenyl)-N-(4-fluoro-3-trifluoromethyl-benzyl)-4-[4-(methanesulfonyl-methyl-amino)-piperidin-1-yl]-2,N-dimethyl-butyramide] | 2.1 nM | 2.1 nM |
| CN(Cc1ccc(C(F)(F)F)c(F)c1)C(=O)C(C)(CCN1CCC(N(C2CC2)S(C)(=O)=O)CC1)c1ccc(Cl)c(Cl)c1 (stereo not shown) [Example 57, 4-[4-(Cyclopropyl-methanesulfonyl-amino)-piperidin-1-yl]-2-(3,4-dichloro-phenyl)-N-(3-fluoro-4-trifluoromethyl-benzyl)-2,N-dimethyl-butyramide] | 5.9 nM | 5.9 nM |
| CC(=O)N(C)C1CCN(CCC(C)(C(=O)N(C)Cc2ccc(Cl)c(C(F)(F)F)c2)c2ccc(Cl)c(Cl)c2)CC1 (stereo not shown) [Example 103, 4-[4-(Acetyl-methyl-amino)-piperidin-1-yl]-N-(4-chloro-3-trifluoromethyl-benzyl)-2-(3,4-dichloro-phenyl)-2,N-dimethyl-butyramide] | 2.2 nM | 2.2 nM |
| CC(=O)N(C)C1CCN(CCC(C)(C(=O)NC(CO)c2ccc(F)cc2)c2ccc(Cl)c(Cl)c2)CC1 (single isomer, unassigned; diastereoisomer 1) [Example 138, 4-[4-(Acetyl-methyl-amino)-piperidin-1-yl]-2-(3,4-dichloro-phenyl)-N-[1-(4-fluoro-phenyl)-2-hydroxy-ethyl]-2-methyl-butyramide (diastereoisomer 1)] | 29.3 nM |  |
| CN(Cc1ccc(C(F)(F)F)c(F)c1)C(=O)C(F)(CCN1CCC(N(C)S(C)(=O)=O)CC1)c1ccc(Cl)c(Cl)c1 (stereo not shown) [Example 53, 2-(3,4-Dichloro-phenyl)-2-fluoro-N-(3-fluoro-4-trifluoromethyl-benzyl)-4-[4-(methanesulfonyl-methyl-amino)-piperidin-1-yl]-N-methyl-butyramide] | 18.3 nM |  |
| Cc1ccc(CN(C)C(=O)C(C)(CCN2CCC(N3CCCC3=O)CC2)c2ccc(Cl)c(Cl)c2)cc1 (stereo not shown) [Example 89, 2-(3,4-Dichloro-phenyl)-2,N-dimethyl-N-(4-methyl-benzyl)-4-[4-(2-oxo-pyrrolidin-1-yl)-piperidin-1-yl]-butyramide] | 5.3 nM | 5.3 nM |
| CC(=O)NC1CCN(CCC(C)(C(=O)N[C@@H](CO)c2ccc(Cl)cc2)c2ccc(Cl)c(Cl)c2)CC1 (single isomer, unassigned; diastereoisomer 1) [Example 156, 4-(4-Acetylamino-piperidin-1-yl)-N-[1-(4-chloro-phenyl)-2-hydroxy-ethyl]-2-(3,4-dichloro-phenyl)-2-methyl-butyramide (diastereoisomer 1)] | 50.5 nM |  |
| CC(=O)N(C)C1CCN(CCC(C)(C(=O)N(C)Cc2ccc(C)cc2)c2ccc(Cl)c(Cl)c2)CC1 (stereo not shown) [Example 107, 4-[4-(Acetyl-methyl-amino)-piperidin-1-yl]-2-(3,4-dichloro-phenyl)-2,N-dimethyl-N-(4-methyl-benzyl)-butyramide] | 10.6 nM |  |
| CC(=O)N(C)C1CCN(CCC(C)(C(=O)N[C@H](CO)c2ccccc2)c2ccc(Cl)c(Cl)c2)CC1 (stereo partly drawn) [Example 133, 4-[4-(Acetyl-methyl-amino)-piperidin-1-yl]-2-(3,4-dichloro-phenyl)-N-((S)-2-hydroxy-1-phenyl-ethyl)-2-methyl-butyramide] | 526 nM |  |
| CC(CCN1CCC(NS(C)(=O)=O)CC1)(C(=O)NCc1cc(C(F)(F)F)cc(C(F)(F)F)c1)c1ccc(Cl)c(Cl)c1 (stereo not shown) [Example 4, N-(3,5-Bis-trifluoromethyl-benzyl)-2-(3,4-dichloro-phenyl)-4-(4-methanesulfonyl-amino-piperidin-1-yl)-2-methyl-butyramide] | 140 nM |  |
| CC(=O)N(C)C1CCN(CCC(C)(C(=O)N(C)Cc2ccccc2Cl)c2ccc(Cl)c(Cl)c2)CC1 (stereo not shown) [Example 108, 4-[4-(Acetyl-methyl-amino)-piperidin-1-yl]-N-(2-chloro-benzyl)-2-(3,4-dichloro-phenyl)-2,N-dimethyl-butyramide] | 12 nM |  |
| C[C@](CCN1CCC(N2CCCC2=O)CC1)(C(=O)N[C@H](CO)c1ccc(Cl)c(Cl)c1)c1ccc(Cl)c(Cl)c1 (single isomer, unassigned) [Example 120, (R or S)-2-(3,4-Dichloro-phenyl)-N-[(S or R)-1-(3,4-dichloro-phenyl)-2-hydroxy-ethyl]-2-methyl-4-[4-(2-oxo-pyrrolidin-1-yl)-piperidin-1-yl]-butyramide] | 2 nM | 2 nM |
| CN(Cc1cccc(Cl)c1)C(=O)C(CCN1CCC(NS(C)(=O)=O)CC1)c1ccc(Cl)c(Cl)c1 (stereo not shown) [Example 39, N-(3-Chloro-benzyl)-2-(3,4-dichloro-phenyl)-4-(4-methanesulfonyl-amino-piperidin-1-yl)-N-methyl-butyramide] | 213 nM |  |
| CC(CCN1CCC(NS(C)(=O)=O)CC1)(C(=O)NCc1cccc(OC(F)(F)F)c1)c1ccc(Cl)c(Cl)c1 (stereo not shown) [Example 21, 2-(3,4-Dichloro-phenyl)-4-(4-methanesulfonyl-amino-piperidin-1-yl)-2-methyl-N-(3-trifluoromethoxy-benzyl)-butyramide] | 147 nM |  |
| Cc1ccc(CN(C)C(=O)C(C)(CCN2CCC(NS(C)(=O)=O)CC2)c2ccc(Cl)c(Cl)c2)cc1 (stereo not shown) [Example 6, 2-(3,4-Dichloro-phenyl)-4-(4-methanesulfonyl-amino-piperidin-1-yl)-2,N-dimethyl-N-(4-methyl-benzyl)-butyramide] | 77.4 nM |  |
| CC(CCN1CCC(NS(C)(=O)=O)CC1)(C(=O)NCc1cccc(OC(F)F)c1)c1ccc(Cl)c(Cl)c1 (stereo not shown) [Example 12, 2-(3,4-Dichloro-phenyl)-N-(3-difluoromethoxy-benzyl)-4-(4-methanesulfonyl-amino-piperidin-1-yl)-2-methyl-butyramide] | 309 nM |  |
| CC(CCN1CCC(N2CCCC2=O)CC1)(C(=O)NC(c1ccccc1)C(F)(F)F)c1ccc(Cl)c(Cl)c1 (stereo not shown) [Example 95, 2-(3,4-Dichloro-phenyl)-2-methyl-4-[4-(2-oxo-pyrrolidin-1-yl)-piperidin-1-yl]-N-(2,2,2-trifluoro-1-phenyl-ethyl)-butyramide] | 4.7 nM | 4.7 nM |
| CC(=O)N(C)C1CCN(CCC(C)(C(=O)N(C)Cc2ccc(Cl)cc2)c2ccc(Cl)c(Cl)c2)CC1 (stereo not shown) [Example 102, 4-[4-(Acetyl-methyl-amino)-piperidin-1-yl]-N-(4-chloro-benzyl)-2-(3,4-dichloro-phenyl)-2,N-dimethyl-butyramide] | 5.1 nM | 5.1 nM |
